From patent US12622916B2, “Use of H3K9me3 modulation for enhancing cognitive function” (THE REGENTS OF THE UNIVERSITY OF CALIFORNIA, priority 2015, dated 2026) come the findings set out here.

For one experiment, the system named is young C57Bl/6J male mice. The experiment is described as follows: Object location memory (OLM) task in young mice. It is filed as in vivo. How it is done:
Object Location Memory (OLM): Training and testing procedures were performed using a standard OLM protocol. Briefly, 22 aged mice and 18 young mice were handled for about 2-3 minutes per day for 5 days, followed by habituation to the experimental apparatus (white rectangular open field measuring 30×23×21.5 cm) for 5 min per day for 5 consecutive days before training.
18 young mice were also tested in the same OLM paradigm as described above. To determine whether the drug impacted acquisition or consolidation mechanisms, the young mice were injected with the 10 mg/kg compound or vehicle (i.p, n=6/group), either just before or right after the acquisition trial, and tested 24 hours post-acquisition. FIG. 3 is a graphical representation of the results of OLM test showing the differences in exploration between mice treated with either vehicle, or 10 mg/kg of ETP69. […] Data are mean±SEM; n=7 or 8/group.

The target of experiment [1] is histone acetyltransferase p300 (Homo sapiens, UniProt Q09472). Briefly: Inhibitory activity towards histone acetyltransferase p300. It counts as biochemical. The text has this: (§1) In accordance with one or more embodiments of the present invention, the role of H3K9me3 in learning and memory in an animal model of aging using a newly developed analog of the epidithiodiketopiperazine alkaloid chaetocin A called ETP69, illustrated in FIG. 1, is studied.
Chain of histone acetyltransferase p300 (Q09472 whole entry, species assumed): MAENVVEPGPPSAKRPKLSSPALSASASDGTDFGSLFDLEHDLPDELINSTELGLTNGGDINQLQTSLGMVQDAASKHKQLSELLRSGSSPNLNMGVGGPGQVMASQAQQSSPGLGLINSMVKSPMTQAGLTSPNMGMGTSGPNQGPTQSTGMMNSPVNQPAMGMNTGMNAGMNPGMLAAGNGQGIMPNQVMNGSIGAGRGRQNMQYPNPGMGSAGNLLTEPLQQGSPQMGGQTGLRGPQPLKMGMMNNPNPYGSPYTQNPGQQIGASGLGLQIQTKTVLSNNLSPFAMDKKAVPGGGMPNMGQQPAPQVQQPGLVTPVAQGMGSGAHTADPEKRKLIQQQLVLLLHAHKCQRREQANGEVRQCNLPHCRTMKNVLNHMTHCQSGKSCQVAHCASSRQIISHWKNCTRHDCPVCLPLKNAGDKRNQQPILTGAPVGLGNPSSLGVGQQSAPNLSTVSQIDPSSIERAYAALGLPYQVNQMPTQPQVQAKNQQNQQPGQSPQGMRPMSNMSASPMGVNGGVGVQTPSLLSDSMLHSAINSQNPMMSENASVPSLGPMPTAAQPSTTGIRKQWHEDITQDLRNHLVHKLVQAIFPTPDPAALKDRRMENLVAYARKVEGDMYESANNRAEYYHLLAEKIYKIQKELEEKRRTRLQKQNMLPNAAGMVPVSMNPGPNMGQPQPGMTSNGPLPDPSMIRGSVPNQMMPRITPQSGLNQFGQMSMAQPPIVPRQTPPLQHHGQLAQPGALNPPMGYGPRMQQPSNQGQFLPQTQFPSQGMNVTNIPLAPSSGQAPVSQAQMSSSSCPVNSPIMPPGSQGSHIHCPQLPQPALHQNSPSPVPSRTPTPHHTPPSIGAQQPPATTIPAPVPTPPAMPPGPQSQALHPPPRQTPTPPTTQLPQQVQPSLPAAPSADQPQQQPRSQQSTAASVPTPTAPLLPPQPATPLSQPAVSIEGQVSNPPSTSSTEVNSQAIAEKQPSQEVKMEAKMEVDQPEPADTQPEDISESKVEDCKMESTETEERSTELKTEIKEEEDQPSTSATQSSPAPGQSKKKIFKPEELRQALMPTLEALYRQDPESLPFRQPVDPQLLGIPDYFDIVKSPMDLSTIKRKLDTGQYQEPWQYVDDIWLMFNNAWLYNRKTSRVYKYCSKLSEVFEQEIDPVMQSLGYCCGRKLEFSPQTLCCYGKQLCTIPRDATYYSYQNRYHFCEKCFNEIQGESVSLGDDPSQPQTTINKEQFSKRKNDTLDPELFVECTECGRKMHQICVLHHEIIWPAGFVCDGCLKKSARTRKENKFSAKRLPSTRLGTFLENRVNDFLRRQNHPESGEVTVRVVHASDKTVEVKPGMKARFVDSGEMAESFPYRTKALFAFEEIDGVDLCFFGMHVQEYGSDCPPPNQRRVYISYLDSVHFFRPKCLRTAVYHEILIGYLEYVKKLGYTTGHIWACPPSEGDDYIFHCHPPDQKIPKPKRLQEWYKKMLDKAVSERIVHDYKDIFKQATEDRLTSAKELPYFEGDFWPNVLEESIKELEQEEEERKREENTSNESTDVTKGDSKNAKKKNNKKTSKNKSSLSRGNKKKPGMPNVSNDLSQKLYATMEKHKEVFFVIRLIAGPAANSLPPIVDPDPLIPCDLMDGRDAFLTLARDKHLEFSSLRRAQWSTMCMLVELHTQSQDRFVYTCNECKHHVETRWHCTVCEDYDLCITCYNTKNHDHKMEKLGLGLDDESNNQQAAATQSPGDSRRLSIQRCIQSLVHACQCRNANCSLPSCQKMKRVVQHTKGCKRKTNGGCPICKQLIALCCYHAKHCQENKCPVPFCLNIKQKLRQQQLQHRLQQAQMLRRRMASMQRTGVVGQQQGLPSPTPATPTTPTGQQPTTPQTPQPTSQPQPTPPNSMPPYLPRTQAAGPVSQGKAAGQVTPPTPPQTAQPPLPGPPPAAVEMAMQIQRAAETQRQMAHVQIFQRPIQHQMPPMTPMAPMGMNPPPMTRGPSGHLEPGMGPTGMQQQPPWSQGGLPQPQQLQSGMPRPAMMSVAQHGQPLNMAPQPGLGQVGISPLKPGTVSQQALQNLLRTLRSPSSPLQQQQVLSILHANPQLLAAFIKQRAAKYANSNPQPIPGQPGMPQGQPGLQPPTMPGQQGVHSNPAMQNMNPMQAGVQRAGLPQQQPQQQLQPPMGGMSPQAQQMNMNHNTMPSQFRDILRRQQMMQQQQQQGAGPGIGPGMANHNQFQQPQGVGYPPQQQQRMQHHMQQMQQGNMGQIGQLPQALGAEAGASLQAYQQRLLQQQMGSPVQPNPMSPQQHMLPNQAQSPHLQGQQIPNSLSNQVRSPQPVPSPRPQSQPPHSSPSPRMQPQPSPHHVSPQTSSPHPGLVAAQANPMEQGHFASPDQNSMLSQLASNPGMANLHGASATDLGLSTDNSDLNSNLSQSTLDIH

A further experiment relates to aged mice. The experiment is described as follows: Unsupervised learning task (USL) in aged mice. It is filed as in vivo. The conditions noted are these: 10 mg/kg i.p. As to the method: Unsupervised learning task: A new group of 12 aged animals were used for the unsupervised learning task. Procedures were adapted from published work. The unsupervised learning (USL) behavioral apparatus consisted of a large open field divided by walls into 4 chambers, all accessible by small entrances in each dividing wall. The animals can also access a smaller attached enclosed dark compartment by an open entrance. After 5 days of handling, animals were injected with ETP69 (10 mg/kg, i.p.) or vehicle and placed in the video-monitored USL box for thirty minutes, and the returned to the home cage. 24 hours later the animals were placed in the USL box again and euthanized immediately after. Their brains were rapidly removed, hippocampus dissected rapidly, frozen on dry ice, and stored at −80° C. until further processing
To evaluate if H3K9me3 is implicated in measures of spatial learning and to evaluate molecular endpoints, a second series of experiments was conducted with the USL task being the behavioral endpoint. The USL task is a simple behavioral paradigm in which mice are allowed to freely explore a four-compartment environment for a specified period of time. Reduction in overall activity and exploration of the test arena over this time is considered a measure of learning and short-term memory. […]

Another experiment concerns BDNF. The experiment is described as follows: ELISA for BDNF protein in hippocampus. It counts as in vivo. The following applies: aged mice; 10 mg/kg i.p. before or right after OLM acquisition; versus controls. How it is done:
Acquisition (pre-training) or Consolidation (post-training): In another test, aimed to determine the efficacy of the compound in pre and post training paradigms, the same group of 22 aged animals were retested on the OLM task 3 weeks after the first test. To determine whether the drug impacted acquisition or consolidation mechanisms, mice were injected with the 10 mg/kg compound (i.p. n=7) or vehicle (n=8). Animals were sacrificed right after retention testing (i.e. 24 hours post injection), and hippocampi were removed, rapidly frozen on dry ice, and stored at −80° C. until processing for trimethylation levels and BDNF assay. FIG. 2 is a graphical representation of the effect of the drug at 10 mg/kg and 20 mg/kg (i.p) administered 30 minutes prior to acquisition phase in the novel place position task in mice. […] Data are mean±SEM; n=7 or 8/group.
ELISA was performed using the BDNF Emax Immunoassay System (G7610, Promega) according to the manufacturer's instructions. Two sets of samples were prepared from the hippocampus of each animal, and all reactions were performed in duplicate.
(In general: An ELISA detects its analyte on a solid surface through an enzyme-linked reagent.)

Experiment [2] deals with panel of 17 human histone methytransferases. The experiment is described as follows: Selectivity against a panel of 17 human histone methyltransferases. It is filed as biochemical. The following applies: versus chaetocin A.
Source text: as §1

For `CN1C(=O)[C@@]23C[C@](C)(C#N)[C@H](c4ccc5c(c4)OCO5)N2C(=O)[C@]1(C)SS3` (racemic) [ETP69, Rac-(3S,6S,7S,8aS)-6-(benzo[d][1,3]dioxol-5-yl)-2,3,7-trimethyl-1,4-dioxohexahydro-6H-3,8a-epidithiopyrrolo[1,2-a]pyrazine-7-carbonitrile], the “OLM acquisition phase: group differences” value in the experiment with young C57Bl/6J male mice (10 mg/kg i.p.) is “no significant group differences”. Moreover, in the experiment with young C57Bl/6J male mice (10 mg/kg i.p. 30 minutes prior to acquisition phase), the “OLM performance, pre-trial administration” value is “did not show any statistical differences”. Also, in the experiment on young C57Bl/6J male mice (10 mg/kg i.p. immediately after acquisition), the “OLM performance, post-trial administration” value is “did not show any statistical differences”. Also, the “inhibitory activity towards histone acetyltransferase p300” value in experiment [1] is recorded as “no inhibitory activity”. Also, the “USL total distance travelled over 30 minutes, Day 1 versus Day 2” value in the experiment on aged mice is “significant decrease in total distance travelled”. Moreover, the “USL habituation/exploration (distance travelled), Day 2 versus Day 1” value in the experiment on aged mice (24 hours after treatment) was “significant decrease in habituation/exploration”. The “BDNF protein levels in hippocampus” value in the experiment on BDNF is given as “significantly elevated levels of BDNF”. The “selectivity against a panel of 17 human histone methytransferases compared with chaetocin A” value in experiment [2] is “significantly greater selectivity”.
